# “And” between values parts separate entries of the source, which are not always exact repeats. Equal values may be shown once.
# Tested on: Leishmania donovani
# Test: Leishmania intramacrophage assay
# Format: functional, organism-based
# Conditions: for IC50: Leishmania donovani
smiles,measurement,value
Cc1ccc(N2CCCC(N(C)c3ncnc4c3CCC4)C2)nn1 (centres undefined),IC50,> 50.1 µM
Cc1nc2c(c(NCC(O)c3ccccc3Cl)n1)CCNCC2 (centres undefined),pIC50,4.337
same,IC50,44.8 µM
CC(NC(=O)NCCCn1ccnc1)c1ccc2c(c1)OCCCO2 (centres undefined),IC50,> 50.1 µM
CCC1CCCN(Cc2nc(N)c3ccccc3n2)C1 (centres undefined),IC50,> 50.1 µM
Cc1ccc(N2CCCC(NCc3cscn3)C2)nn1 (centres undefined),IC50,> 50.1 µM
c1cc(CN2CCC3(CC2)CC(N2CCCC2)CO3)co1 (centres undefined),IC50,> 50.1 µM
Cn1cc(CN2CCC(F)(F)C3(CCN(c4ccccn4)C3)C2)cn1 (centres undefined),IC50,> 50.1 µM
COCCNc1nc2c(c(NCCc3cccs3)n1)CCNCC2,IC50,24.2 µM
O=C(NCc1cccnc1)C1=NN(c2ccccc2)C(=O)CN1,IC50,> 50.1 µM
Cc1nnc(NCC2(c3ccc(Cl)cc3Cl)CCOCC2)c(C#N)c1C,IC50,> 50.1 µM
CC(C)OCCN1CCC(N2CCN(C)C2=O)CC1,IC50,> 50.1 µM
FC(F)(F)c1cc(-c2cccs2)nc(N2CCN3CCCC3C2)n1 (centres undefined),IC50,> 50.1 µM
CN(Cc1ccccc1)C1COC2(CCN(Cc3nccs3)CC2)C1 (centres undefined),IC50,> 50.1 µM
Cc1nnc(NCC2(c3ccccc3)CCC2)c(C#N)c1C,IC50,> 50.1 µM
Cc1nc2c(c(NCc3ccc(-c4ccccn4)s3)n1)CCNCC2,pIC50,4.913
same,IC50,17.9 µM
OCCN1CCC(F)(F)C2(CCN(c3cnccn3)C2)C1 (centres undefined),IC50,> 50.1 µM
O=C(c1c[nH]cn1)N1CCC(F)(F)C2(CCN(c3ncccn3)C2)C1 (centres undefined),IC50,> 50.1 µM
Cc1nc(N2C[C@@H](CN3CCCN(C)CC3)[C@@H](CO)C2)c2ccsc2n1,IC50,> 50.1 µM
Cc1cnn(-c2cccc(N3CCCC3)n2)c1,IC50,> 50.1 µM
CCC(=O)N1CCC2(C=C(C(=O)N(C)C)c3ccccc32)CC1,IC50,> 50.1 µM
CCN1CCC2(C=C(C(=O)N(C)C)c3ccccc32)CC1,IC50,> 50.1 µM
CN(Cc1cc2cc(F)ccc2[nH]1)c1cc(C2CCCNC2)ncn1 (centres undefined),pIC50,4.89
same,IC50,21.5 µM
COc1ccc(C)cc1CNC(=O)C1=NN(c2ccccc2)C(=O)CN1,IC50,> 50.1 µM
Cc1nccn1CC1CCCN(C(=O)Cc2ccsc2)C1 (centres undefined),IC50,> 50.1 µM
CN(C)C1COC2(CCN(Cc3ccc4c(c3)OCO4)CC2)C1 (centres undefined),IC50,> 50.1 µM
CCc1ccc(CN2CCC3(CC2)CC(N2CCN(C)CC2)CO3)cc1.O=C(O)C(F)(F)F (centres undefined),pIC50,4.908 and 5.404
Cc1ccccc1C1(CNc2nnc(C)c(C)c2C#N)CCOCC1,IC50,> 50.1 µM
CCN1CCCC(O)(c2nc(C)c(CCOc3ccccc3Cl)s2)CC1 (centres undefined),IC50,> 50.1 µM
COc1ncccc1CNC(=O)C1=NN(c2ccccc2)C(=O)CN1,IC50,> 50.1 µM
NC(=O)C1CCN(Cc2csc(-c3ncccn3)n2)CC1,IC50,> 50.1 µM
Cc1nnc(NCC2(c3ccccc3)CCOCC2)c(C#N)c1C,IC50,> 50.1 µM
Cc1nn(C)cc1-c1cc(C(F)(F)F)nc(NC2CCCCC2)n1,IC50,> 50.1 µM
C1CCc2nnc(CNc3nc(C4CC4)nc4c3CCNCC4)n2CC1,IC50,> 50.1 µM
O=C(CO)N1CCC(F)(F)C2(CCN(c3ccccc3)C2)C1 (centres undefined),IC50,> 50.1 µM
CC(C(=O)NCc1ccnc(N(C)C)c1)n1cccn1 (centres undefined),IC50,> 50.1 µM
CC(C)n1ccnc1C1CCCN(c2ccccn2)C1 (centres undefined),IC50,> 50.1 µM
CN1CCN(C2COC3(CCN(Cc4cccs4)CC3)C2)CC1 (centres undefined),IC50,> 50.1 µM
N#Cc1cccc(CNC(=O)C2=NN(c3ccccc3)C(=O)CN2)c1,IC50,> 50.1 µM
CCCN(CCOC)c1nc(C)nc2sccc12,IC50,> 50.1 µM
Cc1ccc(-c2ncc(CNc3cnccc3CO)s2)o1,IC50,> 50.1 µM
COc1ccc(-c2cc(CNc3ncnc4c3CCNCC4)no2)cc1,pIC50,4.744
same,IC50,22.5 µM
CCn1ncc(-c2cc(C(F)F)nc3sc(C(N)=O)c(N)c23)c1C,IC50,> 50.1 µM
Cc1sc2nc(C(F)(F)F)nc(N3CCN(S(C)(=O)=O)CC3)c2c1C,IC50,> 50.1 µM
CN(C)C(=O)C1CCN(c2cncc(-n3cccn3)n2)CC1,IC50,> 50.1 µM
CN(C)CCNC(=O)c1ccc2ccc(N(C)CC3CC3)n2c1,IC50,> 50.1 µM
Cc1cc(CN2CCCC(Cn3cncn3)C2)on1 (centres undefined),IC50,> 50.1 µM
CNC(=O)C1CCCN(c2nc(-c3ccco3)nc3c2CCNCC3)C1 (centres undefined),IC50,> 50.1 µM
O=C(CCc1cscn1)N1CCCC(n2ccnc2)C1 (centres undefined),IC50,> 50.1 µM
CCCC(=O)N1CCC(c2ncc3c(n2)CCNC3)CC1,IC50,> 50.1 µM
O=C(NCc1ccccn1)C1=NN(c2ccccc2)C(=O)CN1,IC50,> 50.1 µM
O=C(c1cnccn1)N1CCC(F)(F)C2(CCN(c3ccccn3)C2)C1 (centres undefined),IC50,> 50.1 µM
Cn1ccnc1CN1CCC(F)(F)C2(CCN(c3cccnc3)C2)C1 (centres undefined),IC50,> 50.1 µM
COc1ccc(Cl)cc1CNCCCn1ccnc1,IC50,> 50.1 µM
Cc1sc2nc(C(F)(F)F)nc(N3CCC(NS(C)(=O)=O)CC3)c2c1C,IC50,> 50.1 µM
FC1(F)CCN(Cc2ccccn2)CC12CCN(c1ncccn1)C2 (centres undefined),IC50,> 50.1 µM
NS(=O)(=O)NCC1(c2ccccc2Br)CC1,IC50,> 50.1 µM
Cc1ccc(N2CCC3(CN(CCO)CCC3(F)F)C2)nn1 (centres undefined),IC50,> 50.1 µM
CCCC1CCCN(Cc2csc(-c3ncccn3)n2)CC1 (centres undefined),pIC50,4.896
same,IC50,18.4 µM
CCC(N)C(=O)N1CCC(OCc2ccc(Cl)c(Cl)c2)CC1.Cl (centres undefined),pIC50,4.694
same,IC50,21.5 µM
COCCN(C)C1COC2(CCN(Cc3cccc(F)c3)CC2)C1 (centres undefined),IC50,> 50.1 µM
O=C(CC1CCCCC1)N1CCC(c2ncc3c(n2)CCNC3)CC1,IC50,> 50.1 µM
Cc1nc(N(Cc2ccncc2)CC2CCCO2)c2ccsc2n1 (centres undefined),IC50,> 50.1 µM
CO[C@H]1[C@@H]2CC[C@H]1CN(c1nc(C)nc3sccc13)C2,IC50,> 50.1 µM
Fc1ccc(CN2CCC(F)(F)C3(CCN(c4cnccn4)C3)C2)cc1 (centres undefined),IC50,> 50.1 µM
Cc1cc(C(F)(F)F)nc(N(C)Cc2c(C)noc2C)n1,IC50,> 50.1 µM
CNC(=O)[C@@H]1C[C@H]2CN(Cc3ccco3)C[C@H]2N1C,IC50,> 50.1 µM
Cn1nccc1C1CCN(Cc2csc(-c3ncccn3)n2)CC1,IC50,> 50.1 µM
NC(=O)C1CCN(c2cncc(-n3cccn3)n2)CC1,IC50,> 50.1 µM
CCC(=O)N1CCC(c2ncc3c(n2)CCNC3)CC1,IC50,> 50.1 µM
CNC(=O)c1sccc1N(C)S(=O)(=O)c1ccc(Cl)cc1,IC50,> 50.1 µM
CN1CCN(c2ccc3ccc(C(=O)N4CCCCO4)cn23)CC1,IC50,> 50.1 µM
O=C(CCC1CCCC1)N1CCC(c2ncc3c(n2)CCNC3)CC1,IC50,> 50.1 µM
Cc1ccc(N2CCC3(CN(Cc4cccs4)CCC3(F)F)C2)nn1 (centres undefined),IC50,> 50.1 µM
COCCNc1nc(C2CCCC2)nc2c1CCNCC2,pIC50,4.615
same,IC50,17.4 µM
O=C(O)CN1CCC(F)(F)C2(CCN(c3ccccn3)C2)C1 (centres undefined),IC50,> 50.1 µM
CN(Cc1ccncc1)C1COC2(CCN(Cc3ccsc3)CC2)C1 (centres undefined),IC50,> 50.1 µM
Cn1cc(CN2CCC(F)(F)C3(CCN(c4ncccn4)C3)C2)cn1 (centres undefined),IC50,> 50.1 µM
Cc1nn(C)cc1-c1cc(C(F)F)nc2sc(C(N)=O)c(N)c12,IC50,> 50.1 µM
CN1CCN(C2COC3(CCN(CC4CC4)CC3)C2)CC1 (centres undefined),IC50,> 50.1 µM
CCn1cc(-c2cc(C(F)F)nc3sc(C(N)=O)c(N)c23)c(C)n1,IC50,> 50.1 µM
c1cncc(COC[C@H]2CC[C@H]3[C@H](CCN3Cc3nccs3)O2)c1,IC50,> 50.1 µM
O=C(NCCCN1CCOCC1)c1ccc(-n2ccc3ccccc32)s1,IC50,15.8 µM
CC(NC(=O)Cn1ccnc1)c1ccc(OCC2CC2)c(F)c1 (centres undefined),IC50,> 50.1 µM
CC(=O)N1CCc2nc3sc(C(N)=O)c(N)c3c(C(F)(F)F)c2C1,IC50,> 50.1 µM
CCc1nnc(CN2CCN(c3cccc(OC)c3)C(=O)C2)o1,IC50,> 50.1 µM
CC(Cn1ccnc1)NCc1cc(Br)c2c(c1)OCO2 (centres undefined),IC50,> 50.1 µM
Cn1ncc2c1CN(Cc1ccc(F)cc1)CC2COCC1CC1 (centres undefined),IC50,> 50.1 µM
CCOc1ccc(CNCC(O)c2ccccc2)cc1Cl (centres undefined),IC50,29.6 µM
CN(C)C1COC2(CCN(Cc3ccncc3)CC2)C1 (centres undefined),IC50,> 50.1 µM
CC(=O)NCc1nnc2n1CCN(c1nc(C)nc3sccc13)CC2,IC50,> 50.1 µM
COc1ccc(CNC(=O)C2=NN(c3ccc(C)cc3)C(=O)CN2)cc1,IC50,> 50.1 µM
COc1ccccc1C1(CNc2nnc(C)c(C)c2C#N)CCOCC1,IC50,> 50.1 µM
CN1CCC(N(Cc2ccco2)S(=O)(=O)c2cc(Br)ccc2Br)CC1,pIC50,4.867
same,IC50,17.8 µM
Cc1nc(C2(O)CCCNCC2)sc1CCOc1ccccc1.Cl (centres undefined),pIC50,4.482
same,IC50,24.2 µM
CN1CCN(CC(NCc2ccc(F)cc2)c2ccccc2)CC1 (centres undefined),IC50,13.6 µM
CC1CCCN(Cc2coc(-c3cccc(F)c3)n2)C1 (centres undefined),IC50,> 50.1 µM
Cc1ccc(CN2CCC(F)(F)C3(CCN(c4cnccn4)C3)C2)o1 (centres undefined),IC50,> 50.1 µM
O=C(NCCCN1CCCC1=O)c1ccc(-n2ccc3ccccc32)s1,IC50,> 50.1 µM
CC(C)CC(=O)N1CCN(Cc2csc(-c3ncccn3)n2)CC1,IC50,> 50.1 µM
OCCN1CCC(F)(F)C2(CCN(c3cccnc3)C2)C1 (centres undefined),IC50,> 50.1 µM
CCOc1cc(CNCCCn2ccnc2)cc(Cl)c1OCC,IC50,7.08 µM
CCc1nc2c(N3CCC4(CC3)CC(=O)N(CC(C)C)C4)ncnc2o1,pIC50,4.305
same,IC50,> 50.1 µM
NCC1Cc2cc(Cl)cc(-c3cncc(C(=O)N4CCCCC4)n3)c2O1 (centres undefined),pIC50,4.491
same,IC50,20.8 µM

# Reference: ChEMBL document CHEMBL3988442, “University of Dundee, Small-Polar-MMV Screening Library” (2021)
